From patent US11492348B2, “Tri-substituted aryl and heteroaryl derivatives as modulators of PI3-kinase and autophagy pathways” (Neuropore Therapies, Inc., priority 2018, dated 2022) come the findings set out here.

One experiment has as its target PI3Kα (Homo sapiens (Human), UniProt P42336). The experiment in a line: Inhibition of PI3Kα (ADP-Glo kinase activity assay, ATP to ADP conversion). It is filed as biochemical. As to conditions: 25 μM PIP2:PS, 60 μM ATP, 30 min reaction, luminescence. Summed up: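 Recombinant active PI3Kα (1.1 nM) in HEPES pH 7.5 buffer with 6 mM MgCl2 and 8 mM DTT was preincubated with compound for 0 or 3 h. The reaction ran for 30 min with 25 µM PIP2:PS and 60 µM ATP, and ADP formation was read by ADP-Glo luminescence. IC50 came from a 12-point, 1:3 series fitted with a 4-parameter model, bottom fixed to reference inhibitor controls and top floating.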

The next experiment addresses mTor kinase (Homo sapiens (Human), UniProt P42345). Briefly: mTor assay (33P-ATP filter-binding kinase assay). It is filed as biochemical. Particulars: 2 hours at room temperature. As for the experimental part:
The substrate was prepared in base reaction buffer (20 mM Hepes (pH 7.5), 10 mM MgCl2, 1 mM EGTA, 0.02% Brij35, 0.02 mg/ml BSA, 0.1 mM Na3VO4, 2 mM DTT, 1% DMSO), and required cofactors were added to the substrate solution. The mTor kinase was delivered into the substrate solution, and the solution was gently mixed. Testing compounds were dissolved in 100% DMSO to specific concentration. The serial dilution was conducted by Integra Viaflo Assist in DMSO. The compounds were delivered into the kinase reaction mixture by Acoustic technology (Echo550; nanoliter range), and the reaction mixture was incubated for 20 min at room temperature. Then, 33P-ATP (Specific activity 10 μCi/μl) was delivered into the reaction mixture to initiate the reaction. The reaction mixture was incubated for 2 hours at room temperature. Radioactivity was detected by a filter-binding method. Kinase activity data were expressed as the percent remaining kinase activity in test samples compared to vehicle (dimethyl sulfoxide) reactions. IC50 values and curve fits were obtained using Prism (GraphPad Software).

For experiment [1], the system named is (Ser-473) pAKT in B103 (Rat Neuroblastoma) cells. The experiment in a line: pAKT protocol: loss of (Ser-473) pAKT by AlphaScreen in insulin-stimulated B103 cells. As to conditions: (Ser-473) pAKT/total AKT IC50, 2-hour pretreatment, 2.5 μg/mL insulin 20 minutes. It counts as cell-based. As for the experimental part:
Inhibition of the PI3K-AKT-mTOR pathway was measured by quantifying the loss of (Ser-473) pAKT using AlphaScreen (Perkin Elmer). B103 (Rat Neuroblastoma) cells were seeded in serum containing medium (High Glucose DMEM (-Phenol Red)+10% FBS+2× Glutamax+1 mM Sodium Pyruvate+10 mM HEPES+1× Non-Essential Amino Acids+1× Pen/Strep) on a 96-well tissue culture treated plate and grown for 20 hours. Cells were then serum starved in serum free medium (High Glucose DMEM (-Phenol Red)+1× Glutamax+1 mM Sodium Pyruvate+1× Pen/Strep) for 6 hours prior to a 2-hour pretreatment with inhibitors of the pathway, including reference inhibitor LY294002. These inhibitors were prepared at a 200× final concentration as a 6-point, 1:3 serial dilution in DMSO series, with DMSO as the 7th point. The inhibitors were then diluted in experimental medium (High Glucose DMEM (-Phenol Red)+1× Glutamax+1 mM Sodium Pyruvate+1× Pen/Strep+25 mM HEPES+0.1% BSA) and combined with the cells at 1× final concentration in 0.5% DMSO. […] Cells were promptly lysed using Perkin Elmer proprietary lysis buffer and the (Ser-473) pAKT and total AKT contained in the lysate was measured by AlphaScreen. In AlphaScreen, donor beads were coated with streptavidin to capture one of the antibodies, which is biotinylated. Acceptor beads were coated with Protein A to immobilize the other antibody. In the presence of target protein, the two antibodies bring the donor and acceptor beads close together, generating signal. The amount of light emission is directly proportional to the amount of target protein present in the sample. For each inhibitor tested: the ratio of measured (Ser-473) pAKT/totalAKT was plotted in GraphPad Prism as a 7-point, non-linear regression, 4-parameter curve with bottom constrained to reference control bottom and unconstrained top anchored to DMSO.
On the technique in general: Alpha assays give light when donor and acceptor beads are brought close together.

PI3Kα, sequence (P42336 whole entry): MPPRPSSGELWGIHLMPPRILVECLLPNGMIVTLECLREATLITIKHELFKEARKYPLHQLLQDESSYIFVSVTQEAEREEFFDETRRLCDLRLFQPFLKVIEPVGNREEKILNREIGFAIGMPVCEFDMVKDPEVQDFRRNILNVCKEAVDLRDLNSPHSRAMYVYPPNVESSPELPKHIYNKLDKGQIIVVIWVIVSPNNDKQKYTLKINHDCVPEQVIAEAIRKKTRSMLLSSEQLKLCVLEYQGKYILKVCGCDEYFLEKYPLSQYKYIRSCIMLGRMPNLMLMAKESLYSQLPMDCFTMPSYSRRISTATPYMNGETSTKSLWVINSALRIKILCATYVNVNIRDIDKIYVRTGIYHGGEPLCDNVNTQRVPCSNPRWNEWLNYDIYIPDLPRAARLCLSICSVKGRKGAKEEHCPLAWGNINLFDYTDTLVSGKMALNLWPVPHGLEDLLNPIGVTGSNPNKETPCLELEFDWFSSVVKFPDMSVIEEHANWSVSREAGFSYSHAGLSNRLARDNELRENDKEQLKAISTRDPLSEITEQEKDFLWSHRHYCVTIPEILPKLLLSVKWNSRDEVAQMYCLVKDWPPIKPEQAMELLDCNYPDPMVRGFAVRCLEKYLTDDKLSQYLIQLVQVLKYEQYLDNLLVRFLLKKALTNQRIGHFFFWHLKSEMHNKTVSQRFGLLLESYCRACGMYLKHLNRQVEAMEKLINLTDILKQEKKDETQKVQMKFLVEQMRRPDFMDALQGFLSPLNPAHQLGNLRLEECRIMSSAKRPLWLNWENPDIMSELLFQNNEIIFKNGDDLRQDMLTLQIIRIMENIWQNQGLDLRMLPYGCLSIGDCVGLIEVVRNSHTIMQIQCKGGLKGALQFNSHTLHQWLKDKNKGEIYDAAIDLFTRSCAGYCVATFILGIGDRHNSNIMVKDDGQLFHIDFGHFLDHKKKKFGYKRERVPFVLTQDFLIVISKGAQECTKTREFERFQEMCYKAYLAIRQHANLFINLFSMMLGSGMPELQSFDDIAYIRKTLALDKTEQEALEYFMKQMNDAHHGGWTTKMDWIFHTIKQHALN
PI3Kα, sequence (P27986 whole entry partner): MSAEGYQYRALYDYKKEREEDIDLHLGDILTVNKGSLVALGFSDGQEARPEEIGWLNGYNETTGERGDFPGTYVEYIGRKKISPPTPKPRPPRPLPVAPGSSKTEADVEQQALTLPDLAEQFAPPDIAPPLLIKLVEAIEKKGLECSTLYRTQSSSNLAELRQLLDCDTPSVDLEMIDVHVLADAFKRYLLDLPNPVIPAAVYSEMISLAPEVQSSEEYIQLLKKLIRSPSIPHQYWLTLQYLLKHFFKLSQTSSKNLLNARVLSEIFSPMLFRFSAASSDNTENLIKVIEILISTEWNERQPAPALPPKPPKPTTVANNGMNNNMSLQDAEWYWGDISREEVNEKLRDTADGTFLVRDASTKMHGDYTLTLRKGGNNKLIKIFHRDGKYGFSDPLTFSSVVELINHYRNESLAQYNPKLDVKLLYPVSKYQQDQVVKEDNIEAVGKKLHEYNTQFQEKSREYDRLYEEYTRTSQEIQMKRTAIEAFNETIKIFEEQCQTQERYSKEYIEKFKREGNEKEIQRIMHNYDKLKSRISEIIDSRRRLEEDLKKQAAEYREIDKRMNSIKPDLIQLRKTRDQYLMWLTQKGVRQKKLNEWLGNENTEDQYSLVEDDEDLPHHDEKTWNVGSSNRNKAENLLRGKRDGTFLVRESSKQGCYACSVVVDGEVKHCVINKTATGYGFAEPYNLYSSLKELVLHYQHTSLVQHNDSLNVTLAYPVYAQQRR

As for `Cc1ccccc1Oc1cc(-c2cnc(N)nc2)nc(N2CCOCC2)c1` [Compound 137, 5-(6-morpholino-4-(o-tolyloxy)pyridin-2-yl)pyrimidin-2-amine], the “PI3Ka IC50” value at PI3Kα came out at 0.075 µM. Also, the IC50 turned out to be 0.37 µM at mTor kinase and 0.45 µM in experiment [1].

In the case of `Nc1ncc(-c2cc(N3CCOCC3)cc(S(=O)(=O)[C@@H]3CCOC3)c2)cn1` [Compound 52, (R)-5-(3-morpholino-5-((tetrahydrofuran-3-yl)sulfonyl)phenyl)pyrimidin-2-amine], the “PI3Ka IC50” value on PI3Kα came to 0.13 µM. The IC50 on mTor kinase amounted to 0.73 µM; in experiment [1] it was 3.46 µM.

Take `Nc1ncc(-c2cc(N3CCOCC3)cc(S(=O)(=O)Cc3ccccc3F)c2)cn1` [Compound 50, 5-(3-((2-fluorobenzyl)sulfonyl)-5-morpholinophenyl)pyrimidin-2-amine]: the “PI3Ka IC50” value on PI3Kα is 0.28 µM. For the same molecule, the IC50 at mTor kinase is 2.98 µM; in experiment [1] it was greater than 50 µM.

With `Nc1ncc(-c2cc(N3CCOCC3)cc(S(=O)(=O)C3CN(C(=O)C4CC4)C3)c2)cn1` [Compound 77, (3-((3-(2-aminopyrimidin-5-yl)-5-morpholinophenyl)sulfonyl)azetidin-1-yl)(cyclopropyl)methanone], at PI3Kα, the “PI3Ka IC50” value turned out to be 0.10 µM. Also, the IC50 in experiment [1] amounted to 3.19 µM.

On to `Nc1ncc(-c2cc(N3CCOCC3)cc(S(=O)(=O)CC3CCCCC3)c2)cn1` [Compound 60, 5-(3-((cyclohexylmethyl)sulfonyl)-5-morpholinophenyl)pyrimidin-2-amine], for which, on PI3Kα, the “PI3Ka IC50” value worked out at 0.81 µM. In addition, the 50% inhibitory concentration (IC50) in experiment [1] amounted to 31.1 µM.

Take `Nc1ncc(-c2cc(N3CCOCC3)cc(S(=O)(=O)/C=C/c3ccccc3O)c2)cn1` [Compound 113, (E)-2-(2-((3-(2-aminopyrimidin-5-yl)-5-morpholinophenyl)sulfonyl)vinyl)phenol]: the “PI3Ka IC50” value on PI3Kα was 1.1 µM. Besides, the IC50 in experiment [1] is 14.3 µM.

Turning to `CC(C)(C)NC(=O)N1CC(S(=O)(=O)c2cc(-c3cnc(N)nc3)cc(N3CCOCC3)c2)C1` [Compound 92, 3-((3-(2-aminopyrimidin-5-yl)-5-morpholinophenyl)sulfonyl)-N-(tert-butyl)azetidine-1-carboxamide], the “PI3Ka IC50” value at PI3Kα worked out at 0.15 µM. In experiment [1], the 50% inhibitory concentration (IC50) turned out to be 2.91 µM.

With `Nc1ncc(-c2cc(N3CCOCC3)cc(S(=O)(=O)c3ccccc3)n2)cn1` [Compound 117, 5-(4-morpholino-6-(phenylsulfonyl)pyridin-2-yl)pyrimidin-2-amine], the “PI3Ka IC50” value on PI3Kα was determined as 3.3 µM. In addition, in experiment [1], the IC50 is 17.3 µM.

In the case of `CCC(=O)N1CC(S(=O)(=O)c2cc(-c3cnc(N)nc3)cc(N3CCOCC3)c2)C1` [Compound 75, 1-(3-((3-(2-aminopyrimidin-5-yl)-5-morpholinophenyl)sulfonyl)azetidin-1-yl)propan-1-one], the “PI3Ka IC50” value on PI3Kα was found to be 0.25 µM. Moreover, the IC50 in experiment [1] came to 6.4 µM.

Turning to `C=C(c1ccccc1)c1cc(-c2cnc(N)nc2)nc(N2CCOCC2)c1` [Compound 126, 5-(6-morpholino-4-(1-phenylvinyl)pyridin-2-yl)pyrimidin-2-amine], on PI3Kα, the “PI3Ka IC50” value turned out to be 0.27 µM. Besides, the IC50 in experiment [1] stood at 0.49 µM.

On to `NC(=O)N1CC(S(=O)(=O)c2cc(-c3cnc(N)nc3)cc(N3CCOCC3)c2)C1` [Compound 81, 3-((3-(2-aminopyrimidin-5-yl)-5-morpholinophenyl)sulfonyl)azetidine-1-carboxamide], for which the “PI3Ka IC50” value at PI3Kα came to 0.062 µM. Further, in experiment [1], the IC50 is 26.4 µM.

Turning to `Nc1ncc(-c2cc(N3CCOCC3)cc(S(=O)(=O)C3CN(C(=O)Cc4ccc(F)cc4)C3)c2)cn1` [Compound 78, 1-(3-((3-(2-aminopyrimidin-5-yl)-5-morpholinophenyl)sulfonyl)azetidin-1-yl)-2-(4-fluorophenyl)ethan-1-one], the “PI3Ka IC50” value on PI3Kα worked out at 0.18 µM. In experiment [1], the IC50 was determined as 4.52 µM.

Regarding `Nc1cc(C(F)(F)F)c(-c2cc(N3CCOCC3)cc(S(=O)(=O)[C@@H]3CCOC3)c2)cn1` [Compound 71, (R)-5-(3-morpholino-5-((tetrahydrofuran-3-yl)sulfonyl)phenyl)-4-(trifluoromethyl)pyridin-2-amine], the “PI3Ka IC50” value at PI3Kα stood at 9.1 µM. The IC50 in experiment [1] turned out to be 11.2 µM.

Consider `CN(C)C(=O)N1CC(S(=O)(=O)c2cc(-c3cnc(N)nc3)cc(N3CCOCC3)c2)C1` [Compound 95, 3-((3-(2-aminopyrimidin-5-yl)-5-morpholinophenyl)sulfonyl)-N,N-dimethylazetidine-1-carboxamide], for which the “PI3Ka IC50” value at PI3Kα is 0.12 µM. In experiment [1], the IC50 worked out at 5.19 µM.

For the molecule `Nc1ncc(-c2cc(Cc3ccccc3)cc(N3CCOCC3)n2)cn1` [Compound 124, 5-(4-benzyl-6-morpholinopyridin-2-yl)pyrimidin-2-amine], the “PI3Ka IC50” value at PI3Kα came to 0.12 µM. The IC50 in experiment [1] stood at 0.89 µM.

Take `Nc1ncc(-c2cc(N3CCOCC3)cc(S(=O)(=O)c3coc4ccccc34)c2)cn1` [Compound 109, 5-(3-(benzofuran-3-ylsulfonyl)-5-morpholinophenyl)pyrimidin-2-amine]: the “PI3Ka IC50” value on PI3Kα was found to be 1.2 µM. Also, the IC50 in experiment [1] was 15 µM.

In the case of `COCNC(=O)N1CC(S(=O)(=O)c2cc(-c3cnc(N)nc3)cc(N3CCOCC3)c2)C1` [Compound 94, 3-((3-(2-aminopyrimidin-5-yl)-5-morpholinophenyl)sulfonyl)-N-(methoxymethyl)azetidine-1-carboxamide], the “PI3Ka IC50” value at PI3Kα is 0.11 µM. Further, in experiment [1], the IC50 worked out at 19.8 µM.

As for `O=S(=O)(c1cc(-c2cnc(NC3CC3)nc2)cc(N2CCOCC2)c1)C1CCOC1` (stereo not drawn) [Compound 103, N-cyclopropyl-5-(3-morpholino-5-((tetrahydrofuran-3-yl)sulfonyl)phenyl)pyrimidin-2-amine], the “PI3Ka IC50” value at PI3Kα is 0.68 µM. In addition, the IC50 in experiment [1] amounted to 5.81 µM.

For the molecule `Nc1ccc(-c2cc(N3CCOCC3)cc(S(=O)(=O)Cc3ccc(F)cc3F)c2)nn1` [Compound 96, 6-(3-((2,4-difluorobenzyl)sulfonyl)-5-morpholinophenyl)pyridazin-3-amine], the “PI3Ka IC50” value at PI3Kα is 1.4 µM. Moreover, in experiment [1], the IC50 came to 1.06 µM.

Take `Nc1ncc(-c2cc(N3CCCc4ccccc43)cc(N3CCOCC3)n2)cn1` [Compound 140, 5-(4-(3,4-Dihydroquinolin-1(2H)-yl)-6-morpholinopyridin-2-yl)pyrimidin-2-amine]: the “PI3Ka IC50” value at PI3Kα is 0.12 µM. Further, the IC50 in experiment [1] was 0.31 µM.

In the case of `CNc1ccc(-c2cc(N3CCOCC3)cc(S(=O)(=O)[C@@H]3CCOC3)c2)cn1` [Compound 108, (R)-N-methyl-5-(3-morpholino-5-((tetrahydrofuran-3-yl)sulfonyl)phenyl)pyridin-2-amine], the “PI3Ka IC50” value on PI3Kα came out at 0.69 µM. Further, in experiment [1], the half-maximal inhibitory concentration (IC50) turned out to be 4.72 µM.

As to `O=C(C1CC1)N1CC(S(=O)(=O)c2cc(-c3cnc(NC4CC4)nc3)cc(N3CCOCC3)c2)C1` [Compound 102, cyclopropyl(3-((3-(2-(cyclopropylamino)pyrimidin-5-yl)-5-morpholinophenyl)sulfonyl)azetidin-1-yl)methanone], on PI3Kα, the “PI3Ka IC50” value came out at 0.54 µM. In addition, in experiment [1], the IC50 was 6.79 µM.

In the case of `Nc1ncc(-c2cc(N3CCOCC3)cc(S(=O)(=O)c3c[nH]c4ccccc34)c2)cn1` [Compound 114, 5-(3-((1H-indol-3-yl)sulfonyl)-5-morpholinophenyl)pyrimidin-2-amine], on PI3Kα, the “PI3Ka IC50” value worked out at 2.4 µM. In experiment [1], the IC50 turned out to be 15.3 µM.

In the case of `Nc1ncc(-c2cc(N3CCOCC3)cc(S(=O)(=O)Cc3ccncc3)c2)cn1` [Compound 97, 5-(3-morpholino-5-((pyridin-4-ylmethyl)sulfonyl)phenyl)pyrimidin-2-amine], the “PI3Ka IC50” value on PI3Kα stood at 0.51 µM. Moreover, the IC50 in experiment [1] worked out at 12.4 µM.

In general, IC50 refers to the concentration that inhibits the measured activity by half.
